Assay results: patent publication US7642221B2, “Substituted thien-3-yl-sulphonylamino(thio)carbonyl-triazoline(ethi)ones” (Bayer Aktiengesellschaft, priority 1999, dated 2010)

Experiments:
Type in all cases: in vivo
weeds [1] = test: Post-emergence test, activity against weeds
Method: (§1) • Solvent: 5 parts by weight of acetone • Emulsifier: 1 part by weight of alkylaryl polyglycol ether
(§2) To produce a suitable preparation of active compound, one part by weight of active compound is mixed with the stated amount of solvent, the stated amount of emulsifier is added and the concentrate is diluted with water to the desired concentration.
(§3) Test plants which have a height of 5-15 cm are sprayed with the preparation of active compound such that the particular amounts of active compound desired are applied per unit area. The concentration of the spray liquor is chosen so that the particular amounts of active compound desired are applied in 1000 l of water/ha.
(§4) After three weeks, the degree of damage to the plants is rated in % damage in comparison to the development of the untreated control.
(§5) The figures denote: • 0%=no effect (like untreated control) • 100%=total destruction

Solanum = test: Post-emergence test/greenhouse; details: greenhouse, 15 g of ai/ha, rated after three weeks
Method: as §1, §2, §3, §4, §5

Setaria [2] = test: Post-emergence test/greenhouse; details: greenhouse, 15 g of ai/ha, rated after three weeks
Method: as §1, §2, §3, §4, §5

Abutilon [3] = test: Post-emergence test/greenhouse; details: greenhouse, 15 g of ai/ha, rated after three weeks
Method: as §1, §2, §3, §4, §5

Wheat = test: Post-emergence test/greenhouse; details: greenhouse, rated after three weeks
Method: as §1, §2, §3, §4, §5

Maize = test: Post-emergence test/greenhouse; details: greenhouse, 15 g of ai/ha, rated after three weeks
Method: as §1, §2, §3, §4, §5

Stellaria = test: Post-emergence test/greenhouse; details: greenhouse, rated after three weeks
Method: as §1, §2, §3, §4, §5

Amaranthus [4] = test: Post-emergence test/greenhouse; details: greenhouse, rated after three weeks
Method: as §1, §2, §3, §4, §5

weeds [5] = test: Pre-emergence test, activity against weeds
Method: as §1
(§6) To produce a suitable preparation of active compound, 1 part by weight of active compound is mixed with the stated amount of solvent, the stated amount of emulsifier is added and the concentrate is diluted with water to the desired concentration.
(§7) Seeds of the test plants are sown in normal soil. After about 24 hours, the soil is sprayed with the preparation of active compound such that the particular amount of active compound desired is applied per unit area. The concentration of the spray liquor is chosen so that the particular amount of active compound desired is applied in 1000 liters of water per hectare.
as §4
(§8) The figure denote: • 0%=no effect (like untreated control) • 100%=total destruction

Sinapis = test: Pre-emergence test/greenhouse; details: greenhouse, 250 g of ai/ha, rated after three weeks
Method: as §1, §6, §7, §4, §8

Galium = test: Pre-emergence test/greenhouse; details: greenhouse, 250 g of ai/ha, rated after three weeks
Method: as §1, §6, §7, §4, §8

Setaria [6] = test: Pre-emergence test/greenhouse; details: greenhouse, 250 g of ai/ha, rated after three weeks
Method: as §1, §6, §7, §4, §8

Xanthium = test: Pre-emergence test/greenhouse; details: greenhouse, 250 g of ai/ha, rated after three weeks
Method: as §1, §6, §7, §4, §8

Cyperus = test: Pre-emergence test/greenhouse; details: greenhouse, 250 g of ai/ha, rated after three weeks
Method: as §1, §6, §7, §4, §8

Abutilon [7] = test: Pre-emergence test/greenhouse; details: greenhouse, 250 g of ai/ha, rated after three weeks
Method: as §1, §6, §7, §4, §8

Alopecurus = test: Pre-emergence test/greenhouse; details: greenhouse, 250 g of ai/ha, rated after three weeks
Method: as §1, §6, §7, §4, §8

Amaranthus [8] = test: Pre-emergence test/greenhouse; details: greenhouse, 250 g of ai/ha, rated after three weeks
Method: as §1, §6, §7, §4, §8

Viola = test: Post-emergence test/greenhouse; details: greenhouse, 2 g of ai/ha, rated after three weeks
Method: as §1, §2, §3, §4, §5

Veronica = test: Post-emergence test/greenhouse; details: greenhouse, 2 g of ai/ha, rated after three weeks
Method: as §1, §2, §3, §4, §5

Chenopodium = test: Post-emergence test/greenhouse; details: greenhouse, 2 g of ai/ha, rated after three weeks
Method: as §1, §2, §3, §4, §5

Echinochloa = test: Post-emergence test/greenhouse; details: greenhouse, 2 g of ai/ha, rated after three weeks
Method: as §1, §2, §3, §4, §5

Barley = test: Post-emergence test/greenhouse; details: greenhouse, 2 g of ai/ha, rated after three weeks
Method: as §1, §2, §3, §4, §5

| Compound | activity against weeds (weeds [1]) | activity against weeds (weeds [5]) | degree of damage to the plants, Sinapis (Sinapis) [%] | degree of damage to the plants, Galium (Galium) [%] | degree of damage to the plants, Setaria (Setaria [6]) [%] | degree of damage to the plants, Xanthium (Xanthium) [%] | degree of damage to the plants, Cyperus (Cyperus) [%] | degree of damage to the plants, Abutilon (Abutilon [7]) [%] | degree of damage to the plants, Alopecurus (Alopecurus) [%] | degree of damage to the plants, Amaranthus (Amaranthus [8]) [%] | further results |
| --- | --- | --- | --- | --- | --- | --- | --- | --- | --- | --- | --- |
| COC(=O)c1csc(C)c1S(=O)(=O)NC(=O)n1nc(C)n(C)c1=O [Example 10] | very strong activity | very strong activity | 100 | 95 | 100 | 90 | 95 | 95 | 95 | 100 | degree of damage to the plants, Solanum (Solanum): 90%; degree of damage to the plants, Setaria (Setaria [2]): 95%; degree of damage to the plants, Abutilon (Abutilon [3]): 90%; degree of damage to the plants, Wheat (Wheat; 15 g of ai/ha): 10%; degree of damage to the plants, Maize (Maize): 10%; degree of damage to the plants, Stellaria (Stellaria; 15 g of ai/ha): 95%; degree of damage to the plants, Amaranthus (Amaranthus [4]; 15 g of ai/ha): 90% |
| COC(=O)c1csc(C)c1S(=O)(=O)NC(=O)n1nc(OC)n(C2CC2)c1=O [Example 5] | very strong activity | very strong activity | 95 | 95 | 100 | 99 | 100 | 95 | 99 | 100 | degree of damage to the plants, Viola (Viola): 90%; degree of damage to the plants, Veronica (Veronica): 90%; degree of damage to the plants, Chenopodium (Chenopodium): 95%; degree of damage to the plants, Wheat (Wheat; 2 g of ai/ha): 10%; degree of damage to the plants, Echinochloa (Echinochloa): 95%; degree of damage to the plants, Barley (Barley): 10%; degree of damage to the plants, Stellaria (Stellaria; 2 g of ai/ha): 100%; degree of damage to the plants, Amaranthus (Amaranthus [4]; 2 g of ai/ha): 99% |
